Publication PMC11240139, “Exploring the antitumor potential of novel quinoline derivatives via tubulin polymerization inhibition in breast cancer; design, synthesis and molecular docking” (RSC Advances, 2024)

What was measured:
Assay type in all cases: cell-based
CCRF-CEM (leukemia) = experiment: NCI-60 SRB cytotoxicity screen; conditions: Homo sapiens, single dose 10 μM, read-out: growth inhibition (GI%)
K-562 (leukemia) = experiment: NCI-60 SRB cytotoxicity screen; conditions: Homo sapiens; K-652 [sic], single dose 10 μM; read-out: growth inhibition (GI%)
MOLT-4 (leukemia) = experiment: NCI-60 SRB cytotoxicity screen; conditions: Homo sapiens; MOLT-4, single dose 10 μM; read-out: growth inhibition (GI%)
RPMI-8226 (leukemia) = experiment: NCI-60 SRB cytotoxicity screen; conditions: Homo sapiens; RPMI-8226, single dose 10 μM; read-out: growth inhibition (GI%)
[1] = test system: A549/ATCC (non-small cell lung cancer); experiment: NCI-60 SRB cytotoxicity screen; conditions: Homo sapiens, single dose 10 μM, read-out: growth inhibition (GI%)
[2] = test system: HOP-62 (non-small cell lung cancer); experiment: NCI-60 SRB cytotoxicity screen; conditions: Homo sapiens; HOP-62, single dose 10 μM; read-out: growth inhibition (GI%)
[3] = test system: HOP-92 (non-small cell lung cancer); experiment: NCI-60 SRB cytotoxicity screen; conditions: Homo sapiens; HOP-92, single dose 10 μM; read-out: growth inhibition (GI%)
[4] = test system: NCI-H226 (non-small cell lung cancer); experiment: NCI-60 SRB cytotoxicity screen; conditions: Homo sapiens; NCI-H226, single dose 10 μM; read-out: growth inhibition (GI%)
[5] = test system: NCI-H522 (non-small cell lung cancer); experiment: NCI-60 SRB cytotoxicity screen; conditions: Homo sapiens; NCI-H522, single dose 10 μM; read-out: growth inhibition (GI%)
COLO 205 (colon cancer) = experiment: NCI-60 SRB cytotoxicity screen; conditions: Homo sapiens; COLO 205, single dose 10 μM; read-out: growth inhibition (GI%)
HCC-2998 (colon cancer) = experiment: NCI-60 SRB cytotoxicity screen; conditions: Homo sapiens; HCC-2998, single dose 10 μM; read-out: growth inhibition (GI%)
SW-620 (colon cancer) = experiment: NCI-60 SRB cytotoxicity screen; conditions: Homo sapiens; SW-620, single dose 10 μM; read-out: growth inhibition (GI%)
SF-268 (CNS cancer) = experiment: NCI-60 SRB cytotoxicity screen; conditions: Homo sapiens; SF-268, single dose 10 μM; read-out: growth inhibition (GI%)
SF-295 (CNS cancer) = experiment: NCI-60 SRB cytotoxicity screen; conditions: Homo sapiens; SF-295, single dose 10 μM; read-out: growth inhibition (GI%)
SNB-19 (CNS cancer) = experiment: NCI-60 SRB cytotoxicity screen; conditions: Homo sapiens; SNB-19, single dose 10 μM; read-out: growth inhibition (GI%)
SNB-75 (CNS cancer) = experiment: NCI-60 SRB cytotoxicity screen; conditions: Homo sapiens, SNB-75, SNB-75, single dose 10 μM; read-out: growth inhibition (GI%)
U251 (CNS cancer) = experiment: NCI-60 SRB cytotoxicity screen; conditions: Homo sapiens, U-251; U251, single dose 10 μM; read-out: growth inhibition (GI%)
LOX IMVI (melanoma) = experiment: NCI-60 SRB cytotoxicity screen; conditions: Homo sapiens, single dose 10 μM, read-out: growth inhibition (GI%)
MALME-3M (melanoma) = experiment: NCI-60 SRB cytotoxicity screen; conditions: Homo sapiens, single dose 10 μM, read-out: growth inhibition (GI%)
M14 (melanoma) = experiment: NCI-60 SRB cytotoxicity screen; conditions: Homo sapiens; M14, single dose 10 μM; read-out: growth inhibition (GI%)
MDA-MB-435 (melanoma) = experiment: NCI-60 SRB cytotoxicity screen; conditions: Homo sapiens, MDA-MB-435, read-out: growth inhibition (GI%);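 also: growth inhibition in percent at a single 10 µM dose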
SK-MEL-2 (melanoma) = experiment: NCI-60 SRB cytotoxicity screen; conditions: Homo sapiens; SK-MEL-2, single dose 10 μM; read-out: growth inhibition (GI%)
SK-MEL-5 (melanoma) = experiment: NCI-60 SRB cytotoxicity screen; conditions: Homo sapiens; SK-MEL-5, single dose 10 μM; read-out: growth inhibition (GI%)
OVCAR-3 (ovarian cancer) = experiment: NCI-60 SRB cytotoxicity screen; conditions: Homo sapiens; OVCAR-3, single dose 10 μM; read-out: growth inhibition (GI%)
OVCAR-5 (ovarian cancer) = experiment: NCI-60 SRB cytotoxicity screen; conditions: Homo sapiens; OVCAR-5, single dose 10 μM; read-out: growth inhibition (GI%)
OVCAR-8 (ovarian cancer) = experiment: NCI-60 SRB cytotoxicity screen; conditions: Homo sapiens; OVCAR-8, single dose 10 μM; read-out: growth inhibition (GI%)
[6] = test system: NCI/ADR-RES (ovarian cancer); experiment: NCI-60 SRB cytotoxicity screen; conditions: Homo sapiens, single dose 10 μM, read-out: growth inhibition (GI%)
786-0 (renal cancer) = experiment: NCI-60 SRB cytotoxicity screen; conditions: Homo sapiens; 786-0, single dose 10 μM; read-out: growth inhibition (GI%)
ACHN (renal cancer) = experiment: NCI-60 SRB cytotoxicity screen; conditions: Homo sapiens, single dose 10 μM, read-out: growth inhibition (GI%)
RXF 393 (renal cancer) = experiment: NCI-60 SRB cytotoxicity screen; conditions: Homo sapiens; RXF 393, single dose 10 μM; read-out: growth inhibition (GI%)
SN12C (renal cancer) = experiment: NCI-60 SRB cytotoxicity screen; conditions: Homo sapiens, single dose 10 μM, read-out: growth inhibition (GI%)
[7] = test system: MDA-MB-231/ATCC (breast cancer); experiment: NCI-60 SRB cytotoxicity screen; conditions: Homo sapiens, MDA-MB-231, read-out: growth inhibition (GI%);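 also: growth inhibition in percent at a single 10 µM dose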
HS 578T (breast cancer) = experiment: NCI-60 SRB cytotoxicity screen; conditions: Homo sapiens, single dose 10 μM, read-out: growth inhibition (GI%)
BT-549 (breast cancer) = experiment: NCI-60 SRB cytotoxicity screen; conditions: Homo sapiens; BT-549, single dose 10 μM; read-out: growth inhibition (GI%)
[8] = test system: 60 cancer cell lines (NCI); experiment: NCI-60 single-dose screen, overall verdict over the panel; conditions: single dose 10 μM, whole panel
Method: The cytotoxic activity of the synthesized quinoline derivatives was determined by the national cancer institute (NCI, Bethesda, Maryland, USA) against 60 different cancer cell lines at a single high dose (10^−5 M) in the full NCI 60 cell panel using the sulforhodamine B assay for cell viability evaluation. In summary, 5 × 10^3 cells were in 96-well plate and incubated in complete media for 24 h. Cells were treated with 100 μL of media containing each newly synthesized compound. After drug exposure, cells were fixed by replacing media with 150 μL of 10% TCA and incubated at 4 °C for 1 h. The TCA solution was removed, and the cells were washed 5 times with distilled water. Aliquots of 70 μL SRB solution (0.4% w/v) were added and incubated in a dark place at room temperature for 10 min. The plates were washed 3 times with 1% acetic acid and allowed to air-dry overnight. Then, 150 μL of TRIS (10 mM) was added to dissolve protein-bound SRB stain. The absorbance was measured at 540 nm.% Cytotoxicity = [1 − (AVx/AVNC)] × 100where AVx denotes the average absorbance of the sample well and AVNC denotes the average absorbance of the negative control.

With `CCc1cccc2cc(-c3cc(-c4ccc(OC)c(OC)c4)[nH]c(=O)c3C#N)c(Cl)nc12` [Compound 4b, 4-(2-Chloro-8-ethylquinolin-3-yl)-6-(3,4-dimethoxyphenyl)-2-oxo-1,2-dihydropyridine-3-carbonitrile] the inhibition at 10 µM (CCRF-CEM (leukemia)) was < 10%, the inhibition at 10 µM (K-562 (leukemia)) was 20% and the inhibition at 10 µM (MOLT-4 (leukemia)) was < 10%. For the same compound, the inhibition at 10 µM (RPMI-8226 (leukemia)) was < 10%, the inhibition at 10 µM [1] was < 10% and the inhibition at 10 µM [2] was < 10%. For the same compound, the inhibition at 10 µM [3] was 11.3%, the inhibition at 10 µM [4] was < 10% and the inhibition at 10 µM [5] was 14.7%. The inhibition at 10 µM (COLO 205 (colon cancer)) was < 10%, the inhibition at 10 µM (HCC-2998 (colon cancer)) was < 10% and the inhibition at 10 µM (SW-620 (colon cancer)) was < 10%. For the same compound, the inhibition at 10 µM (SF-268 (CNS cancer)) was 16.1%, the inhibition at 10 µM (SF-295 (CNS cancer)) was < 10% and the inhibition at 10 µM (SNB-19 (CNS cancer)) was < 10%. For the same compound, the inhibition at 10 µM (SNB-75 (CNS cancer)) was 29.6%, the inhibition at 10 µM (U251 (CNS cancer)) was < 10% and the inhibition at 10 µM (LOX IMVI (melanoma)) was < 10%. The inhibition at 10 µM (MALME-3M (melanoma)) was < 10%, the inhibition at 10 µM (M14 (melanoma)) was < 10% and the inhibition at 10 µM (MDA-MB-435 (melanoma)) was < 10%. For the same compound, the inhibition at 10 µM (SK-MEL-2 (melanoma)) was < 10%, the inhibition at 10 µM (SK-MEL-5 (melanoma)) was < 10% and the inhibition at 10 µM (OVCAR-3 (ovarian cancer)) was < 10%. For the same compound, the inhibition at 10 µM (OVCAR-5 (ovarian cancer)) was < 10%, the inhibition at 10 µM (OVCAR-8 (ovarian cancer)) was < 10% and the inhibition at 10 µM [6] was < 10%. The inhibition at 10 µM (786-0 (renal cancer)) was < 10%, the inhibition at 10 µM (ACHN (renal cancer)) was < 10% and the inhibition at 10 µM (RXF 393 (renal cancer)) was 33.8%. The inhibition at 10 µM (SN12C (renal cancer)) was < 10%, the inhibition at 10 µM [7] was < 10% and the inhibition at 10 µM (HS 578T (breast cancer)) was 10.3%. For the same compound, the inhibition at 10 µM (BT-549 (breast cancer)) was < 10% and the “cytotoxic activity over the cell lines (in words)” value [8] was “mild cytotoxic activity”.
